ChEMBL document CHEMBL1133255 (Bioorg Med Chem Lett, 2000)

Columns and labels:
[1] = biological target: 5-hydroxytryptamine receptor 1B (Homo sapiens, UniProt P28222); experiment: Binding affinity towards cloned human 5-hydroxytryptamine 1B receptor
[2] = biological target: 5-hydroxytryptamine receptor 1D (Homo sapiens, UniProt P28221); experiment: Binding affinity for human 5-hydroxytryptamine 1D receptor
Oryctolagus cuniculus = organism: Oryctolagus cuniculus; experiment: The compound was tested for its […] activity using rabbit saphenous vein (RSV) preparation; type: functional

Chain of 5-hydroxytryptamine receptor 1D (P28221 whole entry): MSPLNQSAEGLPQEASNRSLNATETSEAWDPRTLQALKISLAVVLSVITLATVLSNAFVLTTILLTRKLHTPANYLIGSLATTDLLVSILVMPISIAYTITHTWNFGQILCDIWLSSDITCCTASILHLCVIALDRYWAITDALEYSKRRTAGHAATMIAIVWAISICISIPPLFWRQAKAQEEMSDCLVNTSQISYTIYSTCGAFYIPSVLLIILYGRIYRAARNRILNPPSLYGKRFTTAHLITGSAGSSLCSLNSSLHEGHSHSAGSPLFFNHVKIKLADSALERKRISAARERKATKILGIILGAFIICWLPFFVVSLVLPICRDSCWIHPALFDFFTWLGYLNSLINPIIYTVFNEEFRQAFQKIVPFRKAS
Chain of 5-hydroxytryptamine receptor 1B (P28222 whole entry): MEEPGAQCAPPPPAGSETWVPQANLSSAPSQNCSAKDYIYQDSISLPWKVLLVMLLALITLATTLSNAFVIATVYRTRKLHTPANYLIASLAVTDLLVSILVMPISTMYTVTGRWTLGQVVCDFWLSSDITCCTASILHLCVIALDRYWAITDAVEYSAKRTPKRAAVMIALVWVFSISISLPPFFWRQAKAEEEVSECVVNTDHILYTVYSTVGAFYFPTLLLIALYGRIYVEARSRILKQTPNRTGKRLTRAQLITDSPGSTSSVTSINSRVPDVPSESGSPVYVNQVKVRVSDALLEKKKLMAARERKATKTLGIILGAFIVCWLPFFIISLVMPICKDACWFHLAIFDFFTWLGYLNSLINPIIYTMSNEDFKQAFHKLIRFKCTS

CC(C)c1ccc2[nH]cc(CCN(C)C)c2c1 gave a Ki [1] of 14.2 nM and a Ki [2] of 0.4 nM.
For CCc1ccc2[nH]cc(CCN(C)C)c2c1, the EC50 (Oryctolagus cuniculus) was 350 nM and the Ki [2] was 16 nM.
Work on Cc1ccc2[nH]cc(C[C@H]3CCCN3C)c2c1 yielded a Ki [1] of 118 nM, an EC50 (Oryctolagus cuniculus) of 102 nM and a Ki [2] of 3.5 nM.
CC(C)(C)c1ccc2[nH]cc(CCN3CCCC3)c2c1 gave a Ki [1] of 312 nM, an EC50 (Oryctolagus cuniculus) of 1170 nM and a Ki [2] of 2.5 nM.
CCc1ccc2[nH]cc(CCN3CCCC3)c2c1 was tested, and the Ki [1] was 1620 nM and the Ki [2] was 45 nM.
Compound CC(C)c1ccc2[nH]cc(C[C@H]3CCCN3C)c2c1 has a Ki [1] of 10.4 nM, an EC50 (Oryctolagus cuniculus) of 28.6 nM and a Ki [2] of 0.29 nM.
CN1CCC[C@@H]1Cc1c[nH]c2ccc(C(C)(C)C)cc12 showed a Ki [1] of 15.5 nM, an EC50 (Oryctolagus cuniculus) of 51.8 nM and a Ki [2] of 0.25 nM.
With CCc1ccc2[nH]cc(C[C@H]3CCCN3C)c2c1 the Ki [1] was 47 nM, the EC50 (Oryctolagus cuniculus) was 14.7 nM and the Ki [2] was 0.97 nM.
Work on Cn1cc(CCN)c2cc(C(C)(C)C)ccc21 yielded a Ki [2] of 0.45 nM.
CC(C)c1ccc2[nH]cc(CCN3CCCC3)c2c1 was tested, and the Ki [1] was 472 nM, the EC50 (Oryctolagus cuniculus) was 440 nM and the Ki [2] was 5.3 nM.
Work on CNS(=O)(=O)Cc1ccc2[nH]cc(CCN(C)C)c2c1 yielded an EC50 (Oryctolagus cuniculus) of 174 nM.
